Calls of active or inactive are those of the source. The rule behind the calls is not given here. Peptide text beside a SMILES is read from it. * marks the point of attachment. X1 = CC(=O)O[C@H]1C(=O)[C@@]2(C)[C@H]([C@H](OC(=O)c3ccccc3)[C@]3(O)C[C@H](OC(=O)[C@H](OC(=O)OCCS*)[C@@H](NC(=O)c4ccccc4)c4ccccc4)C(C)=C1C3(C)C)[C@]1(OC(C)=O)CO[C@@H]1C[C@@H]2O; X2 = NCCCC[C@H](N*)C(=O)NC(=O)C1CCC(=O)N1
Tests used:
[1] = tested on: MCF7; assay: Cell cycle arrest in human MCF7 cells assessed as increase in accumulation at G2/M-phase at IC50 measured after 4 hrs by […] flow cytometry; type: functional
[2] = Drug conversion in liver of BALB/c nude mouse xenografted with human MCF7 cells assessed as PTX formation at 8 to 12 umol/kg, ip measured after 2 hrs by LC-MS analysis; type: ADME, organism-based; conditions: in vivo, dose 8-12 µmol/kg
[3] = tested on: MCF7; assay: Antitumor activity against human MCF7 cells xenografted in BALB/c nude mouse assessed as reduction in tumor volume at 8 umol/kg, ip administered every two days for two weeks relative to control; type: functional; parameters: scale not given: the % may be the effect or the level left; conditions: dose 8 µmol/kg; time 2 weeks
[4] = Cytotoxicity against human A2780/PTX cells assessed as reduction in cell viability measured after 48 hrs by MTT assay; type: functional, cell-based
[5] = Neurotoxicity in BALB/c mouse assessed as change in noradrenaline level at 12 umol/kg, ip administered every two days for 14 days measured post last dose by LC-MS analysis; type: toxicity, organism-based; conditions: in vivo, 336 h, dose 12 µmol/kg, time 14 day
[6] = tested on: Erythrocyte; assay: Hemolytic activity against human erythrocytes up to 80 uM measured after 1 hr; type: ADME, cell-based
[7] = Myelosuppression in BALB/c mouse assessed as change in lymphocyte count at 12 umol/kg, ip administered every two days for 14 days measured post last dose; type: ADME, organism-based; conditions: in vivo, 336 h, dose 12 µmol/kg, time 14 day
[8] = tested on: MCF7; assay: Induction of apoptosis in human MCF7 cells xenografted in ip dosed BALB/c nude mouse assessed as up regulation of Bax expression administered every two days for two weeks measured post last dose by Western blot analysis; type: functional, organism-based; conditions: dose 8-12 µmol/kg, time 2.0 weeks
[9] = Half life in human plasma at 50 uM by LC-MS analysis; type: ADME, cell-free
[10] = Stability of compound in PBS buffer at 0.5 uM measured after 2 hrs by LC-MS analysis; type: physicochemical
[11] = Neurotoxicity in BALB/c mouse assessed as change in glutamate level at 12 umol/kg, ip administered every two days for 14 days measured post last dose by LC-MS analysis; type: toxicity, organism-based; conditions: in vivo, 336 h, dose 12 µmol/kg, time 14 day
[12] = Toxicity in human MCF7 cells xenografted in BALB/c nude mouse assessed as morphological changes in kidney at 8 to 12 umol/kg, ip administered every two days for two weeks measured post last dose by H and E staining based histological analysis; type: organism-based; conditions: in vivo, 336 h, dose 8-12 µmol/kg, time 2 weeks
[13] = target: T1, 72 kDa type IV collagenase (Homo sapiens, UniProt P08253); assay: Drug metabolism in PBS buffer assessed as MMP2 (unknown origin)-mediated PTX formation at 0.5 uM incubated for 2 hrs followed by GSH addition and measured after 2 hrs by LC-MS analysis; type: ADME; conditions: 4 h
[14] = Drug conversion in tumor of BALB/c nude mouse xenografted with human MCF7 cells assessed as T2-PTX formation at 8 to 12 umol/kg, ip measured after 2 hrs by LC-MS analysis; type: ADME, organism-based, Neoplasm; conditions: in vivo, dose 8-12 µmol/kg
[15] = Neurotoxicity in BALB/c mouse assessed as change in GABA level at 12 umol/kg, ip administered every two days for 14 days measured post last dose by LC-MS analysis; type: toxicity, organism-based; conditions: in vivo, 336 h, dose 12 µmol/kg, time 14 day
[16] = target: T1, 72 kDa type IV collagenase; assay: Drug metabolism in PBS buffer assessed as MMP2 (unknown origin)-mediated CPP-PTX formation at 0.5 uM measured after 2 hrs by LC-MS analysis; type: ADME
[17] = tested on: MCF7; assay: Antitumor activity against human MCF7 cells xenografted in BALB/c nude mouse assessed as reduction in tumor weight at 12 umol/kg, ip administered every two days for two weeks relative to control; type: functional; parameters: scale not given: the % may be the effect or the level left; conditions: dose 12 µmol/kg; time 2 weeks
[18] = tested on: NCM460; assay: Cytotoxicity against human NCM460 cells assessed as reduction in cell viability measured after 48 hrs by MTT assay; type: cell-based; conditions: NCM460, 48 h
[19] = Neurotoxicity in BALB/c mouse assessed as change in dopamine level at 12 umol/kg, ip administered every two days for 14 days measured post last dose by LC-MS analysis; type: toxicity, organism-based; conditions: in vivo, 336 h, dose 12 µmol/kg, time 14 day
[20] = Drug conversion in serum of BALB/c nude mouse xenografted with human MCF7 cells assessed as T2-PTX formation at 8 to 12 umol/kg, ip measured after 2 hrs by LC-MS analysis; type: ADME, organism-based; conditions: in vivo, dose 8-12 µmol/kg
[21] = Drug uptake in human MCF7 cells at 20 nM measured after 4 hrs in presence of MMP inhibitor ilomastat by LC-MS analysis; type: ADME, cell-based; conditions: mcf7, 4 h, 0.02 µM
[22] = tested on: MCF7; assay: Induction of apoptosis in human MCF7 cells at IC50 measured after 4 hrs by Annexin-V FITC/propidium iodide staining based flow cytometry; type: functional, cell-based
[23] = tested on: MCF7; assay: Cytotoxicity against human MCF7 cells assessed as reduction in cell viability measured after 48 hrs in presence of MMP inhibitor ilomastat by MTT assay; type: functional, cell-based
[24] = tested on: MCF7; assay: Induction of mitochondrial membrane potential loss in human MCF7 cells at IC50 measured after 4 hrs by JC-1 staining based flow cytometry; type: functional, cell-based
[25] = Drug uptake in human MCF7 cells at 20 nM measured after 4 hrs by LC-MS analysis; type: ADME, cell-based; conditions: mcf7, 4 h, 0.02 µM
[26] = tested on: MCF7; assay: Antitumor activity against human MCF7 cells xenografted in BALB/c nude mouse assessed as reduction in tumor volume at 12 umol/kg, ip administered every two days for two weeks relative to control; type: functional; parameters: scale not given: the % may be the effect or the level left; conditions: dose 12 µmol/kg; time 2 weeks
[27] = Drug conversion in heart of BALB/c nude mouse xenografted with human MCF7 cells assessed as T2-PTX formation at 8 to 12 umol/kg, ip measured after 2 hrs by LC-MS analysis; type: ADME, organism-based; conditions: in vivo, dose 8-12 µmol/kg
[28] = tested on: MCF7; assay: Antimigratory activity against human MCF7 cells at 1.8 nM measured after 48 hrs by scratch wound-healing assay; type: functional, cell-based
[29] = tested on: MCF7; assay: Induction of apoptosis in human MCF7 cells xenografted in ip dosed BALB/c nude mouse assessed as up regulation of cleaved caspase-9 expression administered every two days for two weeks measured post last dose by Western blot analysis; type: functional, organism-based; conditions: dose 8-12 µmol/kg, time 2.0 weeks
[30] = tested on: MCF7; assay: Antitumor activity against human MCF7 cells xenografted in ip dosed BALB/c nude mouse assessed as tumor shrinkage administered every two days for two weeks; type: functional, organism-based; conditions: dose 8-12 µmol/kg, time 2.0 weeks
[31] = tested on: MCF7; assay: Induction of apoptosis in human MCF7 cells xenografted in ip dosed BALB/c nude mouse assessed as down regulation of Bcl2 expression administered every two days for two weeks measured post last dose by Western blot analysis; type: functional, organism-based; conditions: dose 8-12 µmol/kg, time 2.0 weeks
[32] = tested on: HT-29; assay: Cytotoxicity against human HT-29 cells assessed as reduction in cell viability measured after 48 hrs by MTT assay; type: functional, cell-based; conditions: HT-29, 48 h
[33] = target: Tubulin (Homo sapiens) (UniProt P68371+Q9H4B7+P0DPH7+P68366+Q13509+Q71U36+P04350+Q3ZCM7+P07437+P68363+Q9BQE3+Q6PEY2+Q13885+Q9BVA1+Q9BUF5); assay: Inhibition of microtubule depolymerization in human MCF7 cells at 1.8 nM measured after 12 hrs by immunostaining based confocal microscopic analysis; type: cell-based
[34] = Neurotoxicity in BALB/c mouse assessed as increase in pain sensitivity at 12 umol/kg, ip administered every two days for 14 days by cold water tail immersion test; type: toxicity, organism-based; conditions: in vivo, 336 h, dose 12 µmol/kg, time 14 day
[35] = Neurotoxicity in BALB/c mouse assessed as increase in pain sensitivity at 12 umol/kg, ip administered every two days for 14 days by hot water tail immersion test; type: toxicity, organism-based; conditions: in vivo, 336 h, dose 12 µmol/kg, time 14 day
[36] = Neurotoxicity in BALB/c mouse assessed as change in histidine level at 12 umol/kg, ip administered every two days for 14 days measured post last dose by LC-MS analysis; type: toxicity, organism-based; conditions: in vivo, 336 h, dose 12 µmol/kg, time 14 day

T1 sequence (P08253 whole entry): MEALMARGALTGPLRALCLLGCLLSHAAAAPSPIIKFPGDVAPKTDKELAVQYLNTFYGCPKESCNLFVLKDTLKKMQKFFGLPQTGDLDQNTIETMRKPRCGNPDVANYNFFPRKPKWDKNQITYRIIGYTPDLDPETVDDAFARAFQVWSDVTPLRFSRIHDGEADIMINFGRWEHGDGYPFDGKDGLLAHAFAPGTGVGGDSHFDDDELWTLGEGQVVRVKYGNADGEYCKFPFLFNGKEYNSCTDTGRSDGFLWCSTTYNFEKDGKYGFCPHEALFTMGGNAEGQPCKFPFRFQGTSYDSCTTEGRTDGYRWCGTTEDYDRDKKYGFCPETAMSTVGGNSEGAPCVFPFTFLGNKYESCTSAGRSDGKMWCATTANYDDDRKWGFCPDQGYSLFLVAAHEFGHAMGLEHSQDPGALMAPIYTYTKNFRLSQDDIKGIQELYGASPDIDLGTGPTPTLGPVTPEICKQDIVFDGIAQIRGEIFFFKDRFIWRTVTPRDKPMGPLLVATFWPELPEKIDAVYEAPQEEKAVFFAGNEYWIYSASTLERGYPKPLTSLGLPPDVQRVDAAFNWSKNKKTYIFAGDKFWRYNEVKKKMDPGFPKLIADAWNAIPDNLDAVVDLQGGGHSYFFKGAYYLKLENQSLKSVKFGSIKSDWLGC

Structure (SMILES): CC(=O)O[C@H]1C(=O)[C@@]2(C)[C@H]([C@H](OC(=O)c3ccccc3)[C@]3(O)C[C@H](OC(=O)[C@H](OC(=O)OCCSSC[C@H](N)C(=O)N[C@@H](CC(C)C)C(=O)N[C@@H](CC(C)C)C(=O)N[C@@H](CCCCN)C(=O)N[C@@H](CCCNC(=N)N)C(=O)N[C@@H](Cc4ccccc4)C(=O)N[C@@H](Cc4ccccc4)C(=O)N[C@@H](CCCCN)C(=O)N[C@@H](CCCCN)C(=O)N[C@@H](Cc4ccccc4)C(=O)NCC(=O)N[C@@H](C)C(=O)N[C@@H](CC(C)C)C(=O)NCC(=O)N[C@@H](CC(C)C)C(=O)N4CCC[C@H]4C(=O)NCC(=O)N4CCC[C@H]4C(=O)N[C@@H](CCCNC(=N)N)C(=O)N[C@@H](CC(C)C)C(=O)NCC(=O)N[C@@H](Cc4ccc(O)cc4)C(=O)N[C@@H](CO)C(=O)N[C@@H](Cc4c[nH]c5ccccc45)C(=O)N[C@@H](CCCCN)C(=O)NC(=O)C4CCC(=O)N4)[C@@H](NC(=O)c4ccccc4)c4ccccc4)C(C)=C1C3(C)C)[C@]1(OC(C)=O)CO[C@@H]1C[C@@H]2O (stereo partly specified) (H-C(X1)LLKRFFKKFGALGLPGPRLGYSW-X2)
- Activity [1]: Active
- Drug metabolism [2]: Metabolite_Notdetected
- Activity [3]: 77.2%
- IC50 [4]: 800 nM
- Activity [5]: Non-Toxic
- Activity [6]: Non-Toxic
- Activity [7]: Non-Toxic
- Activity [8]: Dose-dependent effect
- half-life at 50 µM [9]: 2 h
- Stabilty [10]: Stable
- Activity [11]: Non-Toxic
- Activity [12]: Non-Toxic
- Drug metabolism [13]: Metabolite_Detected
- Drug metabolism [14]: Metabolite_Detected
- Activity [15]: Non-Toxic
- Drug metabolism [16]: Metabolite_Detected
- Activity [17]: 83.4%
- IC50 [18]: > 80 nM
- Activity [19]: Non-Toxic
- Drug metabolism [20]: Metabolite_Notdetected
- Drug uptake [21]: Active
- Activity [22]: Active
- Activity [23]: inactive
- Activity [24]: Active
- Drug uptake [25]: Active
- Activity [26]: 90.1%
- Drug metabolism [27]: Metabolite_Notdetected
- Activity [28]: Active
- Activity [29]: Dose-dependent effect
- Activity [30]: Dose-dependent effect
- Activity [31]: Dose-dependent effect
- IC50 [32]: 5.6 nM
- inhibition [33]: Active
- Activity [34]: Non-Toxic
- Activity [35]: Non-Toxic
- Activity [36]: Non-Toxic

From ChEMBL document CHEMBL4732115, “Discovery of novel cell-penetrating and tumor-targeting peptide-drug conjugate (PDC) for programmable delivery of paclitaxel and cancer treatment” (Eur J Med Chem, 2021)
